# Source: patent publication US10941158B2, “Pyrazole ACC inhibitors and uses thereof” (Gilead Apollo, LLC, priority 2015, dated 2021)
# Like-named read-outs stand apart in the source and are kept apart here.
# Key:
# [1] = tested on: C. parapsilosis ATCC 22019; experiment: Anti-Fungal (Candida) Activity Assay, broth microtiter MIC; format: cell-based; settings: Lodderomyces parapsilosis, ATCC22019; 3 replicates, MIC recorded at 48 h; read-out: MIC C. parapsilosis ATCC 22019
# Summary of the method: (§1)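 Strains plated from frozen stock onto Sabouraud dextrose agar, 35 °C, 24 h; colonies suspended directly in RPMI 1640/MOPS, density from standard curves; CLSI M27-A3 microdilution; 48 h read, visual vs growth control.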
# [2] = tested on: C. krusei ATCC 6258; experiment: as above; format: cell-based; settings: Pichia kudriavzevii, ATCC6258; 3 replicates, MIC recorded at 48 h; read-out: MIC C. krusei ATCC 6258
# Summary of the method: as §1
# [3] = tested on: C. albicans ATCC 90028; experiment: as above; format: cell-based; settings: ATCC90028, 3 replicates, MIC recorded at 48 h, read-out: MIC C. albicans ATCC 90028
# Summary of the method: as §1
# [4] = target: human (hACC2) ACC2 (Homo sapiens, UniProt O00763); experiment: In vitro Acetyl-CoA Carboxylase (ACC) inhibition assay (ADP-Glo), hACC2; format: biochemical
# Chain of human (hACC2) ACC2 (O00763 whole entry): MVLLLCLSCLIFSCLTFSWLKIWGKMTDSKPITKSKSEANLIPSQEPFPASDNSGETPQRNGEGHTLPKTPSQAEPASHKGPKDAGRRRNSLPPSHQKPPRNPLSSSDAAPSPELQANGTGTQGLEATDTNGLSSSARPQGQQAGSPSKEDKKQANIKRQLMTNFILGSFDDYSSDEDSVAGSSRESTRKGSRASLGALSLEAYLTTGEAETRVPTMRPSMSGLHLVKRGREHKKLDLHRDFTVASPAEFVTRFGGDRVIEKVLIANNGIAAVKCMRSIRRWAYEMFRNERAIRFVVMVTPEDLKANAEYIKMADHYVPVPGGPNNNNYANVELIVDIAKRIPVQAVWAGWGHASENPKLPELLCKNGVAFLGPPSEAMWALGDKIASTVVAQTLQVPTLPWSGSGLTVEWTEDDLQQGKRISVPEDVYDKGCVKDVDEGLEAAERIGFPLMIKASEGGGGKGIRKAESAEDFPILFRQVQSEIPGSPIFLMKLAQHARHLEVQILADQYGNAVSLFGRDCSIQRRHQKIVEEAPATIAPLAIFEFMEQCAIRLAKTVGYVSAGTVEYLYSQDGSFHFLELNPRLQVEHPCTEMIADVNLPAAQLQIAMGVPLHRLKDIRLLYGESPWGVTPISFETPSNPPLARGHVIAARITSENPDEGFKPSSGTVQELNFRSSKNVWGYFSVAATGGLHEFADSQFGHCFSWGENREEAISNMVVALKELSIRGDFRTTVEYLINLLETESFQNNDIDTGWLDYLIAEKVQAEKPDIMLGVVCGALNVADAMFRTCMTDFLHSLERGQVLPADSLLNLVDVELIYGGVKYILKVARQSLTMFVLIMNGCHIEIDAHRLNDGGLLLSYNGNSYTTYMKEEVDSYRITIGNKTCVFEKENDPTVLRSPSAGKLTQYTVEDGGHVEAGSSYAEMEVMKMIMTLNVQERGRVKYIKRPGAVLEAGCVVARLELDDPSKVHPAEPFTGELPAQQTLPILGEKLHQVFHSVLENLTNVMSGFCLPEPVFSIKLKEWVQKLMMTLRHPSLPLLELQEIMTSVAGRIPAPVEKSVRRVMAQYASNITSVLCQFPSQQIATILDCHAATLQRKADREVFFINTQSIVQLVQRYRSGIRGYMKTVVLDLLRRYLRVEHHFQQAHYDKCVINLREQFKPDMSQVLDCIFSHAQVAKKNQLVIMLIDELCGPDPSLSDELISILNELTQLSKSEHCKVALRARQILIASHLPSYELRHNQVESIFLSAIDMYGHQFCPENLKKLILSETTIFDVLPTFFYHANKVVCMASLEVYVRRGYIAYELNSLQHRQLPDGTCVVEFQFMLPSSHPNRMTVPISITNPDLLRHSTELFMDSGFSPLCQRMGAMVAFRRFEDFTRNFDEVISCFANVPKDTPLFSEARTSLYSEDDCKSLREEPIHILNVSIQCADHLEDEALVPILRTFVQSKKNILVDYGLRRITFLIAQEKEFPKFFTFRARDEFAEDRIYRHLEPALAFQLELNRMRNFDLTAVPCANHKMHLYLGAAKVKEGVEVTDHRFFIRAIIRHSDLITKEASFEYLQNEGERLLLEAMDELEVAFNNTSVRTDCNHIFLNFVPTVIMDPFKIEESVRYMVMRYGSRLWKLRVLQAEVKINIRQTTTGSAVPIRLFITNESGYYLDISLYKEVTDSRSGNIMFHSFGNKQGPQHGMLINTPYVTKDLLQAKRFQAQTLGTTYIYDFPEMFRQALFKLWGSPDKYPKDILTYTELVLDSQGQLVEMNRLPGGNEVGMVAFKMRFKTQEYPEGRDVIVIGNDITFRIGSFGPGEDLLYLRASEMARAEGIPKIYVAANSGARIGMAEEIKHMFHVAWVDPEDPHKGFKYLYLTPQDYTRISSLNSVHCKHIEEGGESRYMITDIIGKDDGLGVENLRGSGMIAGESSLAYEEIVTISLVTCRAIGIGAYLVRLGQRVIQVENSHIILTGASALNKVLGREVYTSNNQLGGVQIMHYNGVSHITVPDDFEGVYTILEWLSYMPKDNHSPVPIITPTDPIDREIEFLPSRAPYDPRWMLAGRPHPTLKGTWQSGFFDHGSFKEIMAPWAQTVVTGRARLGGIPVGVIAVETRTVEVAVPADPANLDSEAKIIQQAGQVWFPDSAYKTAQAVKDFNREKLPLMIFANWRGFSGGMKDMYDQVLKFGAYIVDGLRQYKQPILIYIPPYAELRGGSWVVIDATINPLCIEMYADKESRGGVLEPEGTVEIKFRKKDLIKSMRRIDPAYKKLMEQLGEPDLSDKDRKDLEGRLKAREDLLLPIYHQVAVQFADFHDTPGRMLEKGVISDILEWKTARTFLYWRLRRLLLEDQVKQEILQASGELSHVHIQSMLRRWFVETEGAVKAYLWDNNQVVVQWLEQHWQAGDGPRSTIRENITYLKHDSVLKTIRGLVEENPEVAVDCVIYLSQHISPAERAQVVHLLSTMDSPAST
# Procedure: The detailed procedure is as follows. […] 10 μL ADP glo reagent was added. […] 20 μL kinase detection reagent was added.
# “NA” stands for “not assayed.”
# [5] = target: fungal (fACC2) ACC2 (UniProt Q00955); settings: read-out: fACC2 IC50; fungal ACC2, ADP-Glo
# Chain of fungal (fACC2) ACC2 (Q00955 whole entry): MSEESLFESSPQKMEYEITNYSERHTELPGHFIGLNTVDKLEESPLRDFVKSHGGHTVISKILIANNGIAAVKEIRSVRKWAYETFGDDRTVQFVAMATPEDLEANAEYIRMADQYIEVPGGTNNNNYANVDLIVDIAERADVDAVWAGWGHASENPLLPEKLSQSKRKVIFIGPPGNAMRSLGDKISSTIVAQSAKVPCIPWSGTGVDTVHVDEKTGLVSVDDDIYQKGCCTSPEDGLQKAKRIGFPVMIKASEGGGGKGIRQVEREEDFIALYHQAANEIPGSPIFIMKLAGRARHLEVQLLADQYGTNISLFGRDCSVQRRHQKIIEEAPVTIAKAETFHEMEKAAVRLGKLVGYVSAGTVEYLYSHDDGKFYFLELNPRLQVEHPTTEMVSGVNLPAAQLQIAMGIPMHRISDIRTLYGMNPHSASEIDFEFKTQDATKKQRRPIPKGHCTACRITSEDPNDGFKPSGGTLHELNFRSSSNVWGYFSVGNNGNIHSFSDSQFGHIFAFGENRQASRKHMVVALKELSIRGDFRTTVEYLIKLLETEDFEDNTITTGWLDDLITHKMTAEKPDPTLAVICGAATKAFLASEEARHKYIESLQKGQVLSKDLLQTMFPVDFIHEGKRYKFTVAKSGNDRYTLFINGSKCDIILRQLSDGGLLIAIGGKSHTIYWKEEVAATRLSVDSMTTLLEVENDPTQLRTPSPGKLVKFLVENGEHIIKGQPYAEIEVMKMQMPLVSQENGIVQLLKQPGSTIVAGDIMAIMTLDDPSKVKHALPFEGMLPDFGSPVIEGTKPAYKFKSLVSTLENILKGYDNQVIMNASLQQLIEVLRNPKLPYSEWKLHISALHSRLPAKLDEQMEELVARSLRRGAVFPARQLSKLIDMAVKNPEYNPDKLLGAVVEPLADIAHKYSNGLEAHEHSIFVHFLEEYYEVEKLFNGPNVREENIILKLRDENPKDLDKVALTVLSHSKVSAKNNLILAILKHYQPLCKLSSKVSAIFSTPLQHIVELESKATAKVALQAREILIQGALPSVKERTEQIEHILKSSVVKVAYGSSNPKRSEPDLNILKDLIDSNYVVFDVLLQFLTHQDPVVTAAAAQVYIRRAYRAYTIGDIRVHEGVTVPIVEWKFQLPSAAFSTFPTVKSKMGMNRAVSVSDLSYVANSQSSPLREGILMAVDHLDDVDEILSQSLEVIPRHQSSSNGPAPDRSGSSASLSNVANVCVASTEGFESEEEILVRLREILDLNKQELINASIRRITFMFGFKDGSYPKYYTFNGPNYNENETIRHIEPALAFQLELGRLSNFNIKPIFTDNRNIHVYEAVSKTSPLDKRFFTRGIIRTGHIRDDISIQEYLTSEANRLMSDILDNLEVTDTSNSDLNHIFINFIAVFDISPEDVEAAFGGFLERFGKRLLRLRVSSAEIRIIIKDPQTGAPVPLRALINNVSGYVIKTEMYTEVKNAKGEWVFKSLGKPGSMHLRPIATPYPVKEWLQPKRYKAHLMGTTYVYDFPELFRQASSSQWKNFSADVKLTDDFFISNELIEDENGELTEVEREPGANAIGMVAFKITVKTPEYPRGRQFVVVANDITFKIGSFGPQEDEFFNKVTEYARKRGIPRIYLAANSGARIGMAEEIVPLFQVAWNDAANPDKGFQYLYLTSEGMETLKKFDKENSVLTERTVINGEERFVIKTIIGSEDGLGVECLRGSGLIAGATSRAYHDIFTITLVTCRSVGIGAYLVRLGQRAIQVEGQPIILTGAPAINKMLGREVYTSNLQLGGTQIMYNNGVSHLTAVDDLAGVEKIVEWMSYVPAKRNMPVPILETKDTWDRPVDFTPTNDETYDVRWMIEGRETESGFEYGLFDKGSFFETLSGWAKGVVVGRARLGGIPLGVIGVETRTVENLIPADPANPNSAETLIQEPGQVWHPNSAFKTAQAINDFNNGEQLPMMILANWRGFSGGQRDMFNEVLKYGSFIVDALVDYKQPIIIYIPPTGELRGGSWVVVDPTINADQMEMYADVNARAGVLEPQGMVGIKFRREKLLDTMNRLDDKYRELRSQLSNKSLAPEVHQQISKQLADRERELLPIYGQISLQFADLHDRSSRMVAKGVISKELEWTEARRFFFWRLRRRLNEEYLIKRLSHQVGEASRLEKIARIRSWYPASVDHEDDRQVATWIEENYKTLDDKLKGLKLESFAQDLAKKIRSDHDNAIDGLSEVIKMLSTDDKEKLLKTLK
# Procedure: An exemplary procedure for the in vitro ACC inhibition assay, which can be used to determine the inhibitory action of compounds of the invention toward either human (hACC2) or fungal (fACC2) ACC2, follows. The ADP-Glo™ Kinase Assay kit from Promega was used. The ADP-Glo™ Kinase Assay is a luminescent ADP detection assay to measure enzymatic activity by quantifying the amount of ADP produced during an enzyme reaction. The assay is performed in two steps; first, after the enzyme reaction, an equal volume of ADP-Glo™ Reagent is added to terminate the reaction and deplete the remaining ATP. Second, the Kinase Detection Reagent is added to simultaneously convert ADP to ATP and allow the newly synthesized ATP to be measured using a luciferase/luciferin reaction. Luminescence can be correlated to ADP concentrations by using an ATP-to-ADP conversion curve. The detailed procedure is as follows. 50 μL of the compound being tested (600 μM in DMSO) was added to a 384-well dilution plate. The compound was diluted 1:3 in succession in DMSO for each row for 11 wells. 0.5 μL ACC2 working solution was added to 384-well white Optiplate assay plate. 0.5 μL diluted compound solution in each column from step 2 was added to assay plate, each row containing 2 replicates. […] The plates were incubated at room temperature for 15 minutes. 5 μL substrate working solution was added to each well to initiate reaction. Final ACC2 reaction concentrations consist of: 5 nM ACC2, 20 μM ATP, 20 μM acetyl-CoA, 12 mM NaHCO3, 0.01% Brij35, 2 mM DTT, 5% DMSO, test compound concentrations: 30 μM, 10 μM, 3.33 μM, 1.11 μM, 0.37 μM, 0.123 μM, 0.0411 μM, 0.0137 μM, 0.00457 μM, 0.00152 μM, and 0.00051 μM. Plates were incubated at room temperature for 60 minutes. 10 μL ADP glo reagent was added. Plates were incubated at room temperature for 40 minutes. 20 μL kinase detection reagent was added. Plates were incubated at room temperature for 40 minutes, and then read on a Perkin Elmer EnVision 2104 plate reader for luminescence as Relative Light Units (RLU).
# Data for each concentration, as well as the positive and negative controls were averaged, and the standard deviation calculated. Percent inhibition was calculated by the formula: 100×(average negative control−compound)/(average negative control−average positive control). The IC50 for each compound was calculated by fitting the data with a non-linear regression equation: Y=Bottom+(Top-Bottom)/(1+10^((Log IC50−X)*Hill Slope)), where X is the log of compound concentration and Y is percent inhibition.
# Compounds having an activity designated as “AA” provided an IC50 0.0006-0.003 μM; provided an “A” provided an IC50 0.003-0.01 μM; compounds having an activity designated as “B” provided an IC50 0.01-0.04 μM; and compounds having an activity designated as “C” provided an IC50>0.04 μM IC50. “NA” stands for “not assayed.”
# [6] = tested on: Fusarium moniliforme (Fm); experiment: Growth inhibition assay of fungal pathogens; format: cell-based; settings: Fusarium verticillioides, 48 h, read-out: Concentration at 90% Inhibition Fm
# Summary of the method: (§2)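 Percent growth inhibition was derived from 48 h OD600 and visual scores relative to 2% DMSO, with blank background subtraction. Fungi were grown from spores in 17% V8 liquid medium, R. solani from 1.5 mm plugs in ¼ PDB, with compound at final 50/10/2 or 2/0.4/0.08 ppm.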
# [7] = tested on: Phytophthora capsici (Pc); experiment: Growth inhibition assay of fungal pathogens; format: cell-based; settings: Phytophthora capsici, Table 4b, read-out: Concentration at 90% Inhibition Pc
# Summary of the method: as §2
# [8] = tested on: Botrtyis cinerea (Bc); experiment: Growth inhibition assay of fungal pathogens; format: cell-based; settings: 48 h, Table 4b, read-out: Concentration at 90% Inhibition Bc
# Summary of the method: as §2
# [9] = tested on: Septoria tritici (St); experiment: Growth inhibition assay of fungal pathogens; format: cell-based; settings: Zymoseptoria tritici, Table 4b, read-out: Concentration at 90% Inhibition St
# Summary of the method: as §2
# [10] = tested on: Collectotrichum graminicola (Cg); experiment: Growth inhibition assay of fungal pathogens; format: cell-based; settings: 48 h, Table 4b, read-out: Concentration at 90% Inhibition Cg
# Summary of the method: as §2
# [11] = tested on: Diplodia maydis (Dm); experiment: Growth inhibition assay of fungal pathogens; format: cell-based; settings: Stenocarpella maydis, 48 h, Table 4b, read-out: Concentration at 90% Inhibition Dm
# Summary of the method: as §2
# [12] = tested on: Rhizoctonia solani (Rs); experiment: Growth inhibition assay of fungal pathogens; format: cell-based; settings: 48 h, Table 4b, read-out: Concentration at 90% Inhibition Rs
# Summary of the method: as §2
# [13] = tested on: Fusarium virguliforme (Fv); experiment: Growth inhibition assay of fungal pathogens; format: cell-based; settings: 48 h
# Summary of the method: as §2
# [14] = Table 4b, 48 hours, read-out: Concentration at 90% Inhibition Fv
Structure (SMILES),MIC [1] [µg/mL],MIC [2] [µg/mL],MIC [3] [µg/mL],IC50 [4] [nM],IC50 [5] [nM],other results
"COCCO[C@@H](Cn1c(=O)n(C(C)C(=O)N2CCCC2)c(=O)c2c(C)c(-n3cccn3)sc21)c1cc(F)ccc1OC (mixture of isomers) [Compound I-54, 1-((R)-2-(5-fluoro-2-methoxyphenyl)-2-(2-methoxyethoxy)ethyl)-5-methyl-3-(1-oxo-1-(pyrrolidin-1-yl)propan-2-yl)-6-(1H-pyrazol-1-yl)thieno[2,3-d]pyrimidine-2,4(1H,3H)-dione]",> 4.1,> 4.1,> 4.1,10 to 40,0.6 to 3,
Cc1c(-n2cccn2)sc2c1c(=O)n(C(C)(C)C(=O)NC(C)C)c(=O)n2C[C@H](OC1CCOCC1)c1cc(F)ccc1OCCO [Compound I-48],> 4.1,> 4.1,> 4.1,3 to 10,0.6 to 3,
COCCOc1ccc(F)cc1[C@H](Cn1c(=O)n(C(C)(C)C(=O)NC(C)C)c(=O)c2c(C)c(-n3cccn3)sc21)OC1CCOCC1 [Compound I-49],> 4.1,1.1 to 2,> 4.1,3 to 10,0.6 to 3,
Cc1c(-n2cccn2)sc2c1c(=O)n(C(C)(C)C(=O)NC(C)C)c(=O)n2C[C@H](OC1CCOCC1)c1cc(F)ccc1OCC1COC1 [Compound I-50],> 4.1,> 4.1,> 4.1,3 to 10,0.6 to 3,
Cc1c(-n2cccn2)sc2c1c(=O)n(C(C)(C)C(=O)N1CCCC1)c(=O)n2C[C@H](OC1CCOCC1)c1cc(F)ccc1OCCO [Compound I-51],2.1 to 4,0.25 to 1,1.1 to 2,3 to 10,0.6 to 3,
COCCOc1ccc(F)cc1[C@H](Cn1c(=O)n(C(C)(C)C(=O)N2CCCC2)c(=O)c2c(C)c(-n3cccn3)sc21)OC1CCOCC1 [Compound I-52],1.1 to 2,1.1 to 2,2.1 to 4,3 to 10,0.6 to 3,
Cc1c(-n2cccn2)sc2c1c(=O)n(C(C)(C)C(=O)N1CCCC1)c(=O)n2C[C@H](OC1CCOCC1)c1cc(F)ccc1OCC1COC1 [Compound I-53],2.1 to 4,1.1 to 2,> 4.1,3 to 10,0.6 to 3,
COCCO[C@@H](Cn1c(=O)n(C(C)C(=O)NC(C)C)c(=O)c2c(C)c(-n3cccn3)sc21)c1cc(F)ccc1OC (some centres unmarked) [Compound I-55],2.1 to 4,2.1 to 4,2.1 to 4,3 to 10,0.6 to 3,
COCCO[C@@H](Cn1c(=O)n(C(C)C(N)=O)c(=O)c2c(C)c(-n3cccn3)sc21)c1cc(F)ccc1OC (some centres unmarked) [Compound I-56],> 4.1,> 4.1,> 4.1,> 40,10 to 40,
COCCO[C@@H](Cn1c(=O)n(C(C)C(=O)O)c(=O)c2c(C)c(-n3cccn3)sc21)c1cc(F)ccc1OC (some centres unmarked) [Compound I-57],> 4.1,> 4.1,> 4.1,10 to 40,10 to 40,
COc1ccc(F)cc1[C@H](Cn1c(=O)n(C(C)C(=O)N2CCCC2)c(=O)c2c(C)c(-n3cccn3)sc21)OCCO (some centres unmarked) [Compound I-58],> 4.1,2.1 to 4,> 4.1,3 to 10,0.6 to 3,
COc1ccc(F)cc1[C@H](Cn1c(=O)n(C(C)C(=O)NC(C)C)c(=O)c2c(C)c(-n3cccn3)sc21)OCCO (some centres unmarked) [Compound I-59],> 4.1,> 4.1,> 4.1,3 to 10,0.6 to 3,
COc1ccc(F)cc1[C@H](Cn1c(=O)n(C(C)C(=O)O)c(=O)c2c(C)c(-n3cccn3)sc21)OCCO (some centres unmarked) [Compound I-60],> 4.1,> 4.1,> 4.1,3 to 10,0.6 to 3,
COc1ccc(F)cc1[C@H](Cn1c(=O)n(C(C)C(N)=O)c(=O)c2c(C)c(-n3cccn3)sc21)OCCO (some centres unmarked) [Compound I-61],> 4.1,> 4.1,> 4.1,10 to 40,0.6 to 3,
COc1ccc(F)cc1[C@H](Cn1c(=O)n(C(C)C(=O)O)c(=O)c2c(C)c(-n3cccn3)sc21)OCC(C)(C)O (some centres unmarked) [Compound I-62],> 4.1,> 4.1,> 4.1,3 to 10,0.6 to 3,
COCCOc1ccc(F)cc1[C@H](Cn1c(=O)n(C(C)(C)C(N)=O)c(=O)c2c(C)c(-n3cccn3)sc21)OC(C)C [Compound I-63],> 4.1,> 4.1,> 4.1,3 to 10,0.6 to 3,
"COCCO[C@@H](Cn1c(=O)n([C@@H](C)C(=O)N2CCCC2)c(=O)c2c(C)c(-n3cccn3)sc21)c1cc(F)ccc1OC [Compound I-75, 1-((R)-2-(5-fluoro-2-methoxyphenyl)-2-(2-methoxyethoxy)ethyl)-5-methyl-3-((S)-1-oxo-1-(pyrrolidin-1-yl)propan-2-yl)-6-(1H-pyrazol-1-yl)thieno[2,3-d]pyrimidine-2,4(1H,3H)-dione]",,,,3 to 10,0.6 to 3,"IC90 ([6]; Table 4b, 48 hours): 0.08 µg/mL; IC90 ([7]; 48 hours): > 50 µg/mL; IC90 [8]: 2 µg/mL; IC90 ([9]; 48 hours): > 50 µg/mL; IC90 [10]: 2 µg/mL; IC90 [11]: 2 µg/mL; IC90 [12]: 0.08 µg/mL; IC90 [13, 14]: 0.4 µg/mL"
"COc1ccc(F)cc1[C@H](Cn1c(=O)n(C(C)(C)C(=O)NC(C)C)c(=O)c2c(C)c(-n3cccn3)sc21)OCCC#N [Compound I-78, (R)-2-(1-(2-(2-cyanoethoxy)-2-(5-fluoro-2-methoxyphenyl)ethyl)-5-methyl-2,4-dioxo-6-(1H-pyrazol-1-yl)-1,4-dihydrothieno[2,3-d]pyrimidin-3(2H)-yl)-N-isopropyl-2-methylpropanamide]",,,,10 to 40,0.6 to 3,"IC90 [6]: 10 µg/mL; IC90 ([7]; 48 h): > 50 µg/mL; IC90 [8]: 10 µg/mL; IC90 ([9]; 48 h): > 50 µg/mL; IC90 [10]: > 50 µg/mL; IC90 [11]: > 50 µg/mL; IC90 [12]: 10 µg/mL; IC90 ([13]; read-out: Concentration at 90% Inhibition Fv, Table 4b, 48 hours): > 50 µg/mL"
COc1ccccc1[C@H](Cn1c(=O)n(C(C)(C)C(=O)O)c(=O)c2c(C)c(-n3cccn3)sc21)OCCC#N [Compound I-79],,,,3 to 10,0.6 to 3,"IC90 ([6]; Table 4b, 48 hours): 0.08 µg/mL; IC90 ([7]; 48 hours): > 50 µg/mL; IC90 [8]: 0.4 µg/mL; IC90 ([9]; 48 hours): 10 µg/mL; IC90 [10]: 0.4 µg/mL; IC90 [11]: 0.4 µg/mL; IC90 [12]: 0.08 µg/mL; IC90 [13, 14]: 0.4 µg/mL"
